Measurements: patent US7880002B2, “Substituted piperazinyl-pyrrolidine compounds useful as chemokine receptor antagonists” (Millennium Pharmaceuticals, Inc., priority 2004, dated 2011)

target: T1, CCR1 (Homo sapiens, UniProt P32246); assay: CCR1 inhibition (THP-1 FLIPR assay / THP-1 whole cell radioligand binding assay; the patent does not say which gave the values); assay type: cell-based; details: threshold list, less than 100 nm; compounds of Table 1; read-out: inhibitory activity
T1 construct: a monocytic derived cell line that endogenously expresses CCR1; host or cells: THP-1 cells
T1 sequence (P32246 1-355): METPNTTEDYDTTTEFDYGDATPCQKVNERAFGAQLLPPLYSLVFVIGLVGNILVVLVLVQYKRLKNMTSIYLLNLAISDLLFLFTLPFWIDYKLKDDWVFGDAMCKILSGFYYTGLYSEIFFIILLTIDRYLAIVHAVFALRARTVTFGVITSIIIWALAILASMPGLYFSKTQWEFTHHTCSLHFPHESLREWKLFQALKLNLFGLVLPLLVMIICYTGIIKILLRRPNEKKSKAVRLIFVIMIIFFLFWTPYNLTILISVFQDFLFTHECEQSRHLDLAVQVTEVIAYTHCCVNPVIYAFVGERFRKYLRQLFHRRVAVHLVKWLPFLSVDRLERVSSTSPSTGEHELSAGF
Experimental: The primary screening assay is a FLIPR® (Fluorometric Imaging Plate Reader, available from Molecular Devices Corporation, Sunnyvale, Calif.) assay using THP-1 cells (ATCC, Catalog No. TIB 202), a monocytic derived cell line that endogenously expresses CCR1.
The cells were resuspended at 1×10^6 cells/ml in dye loading media (growth media (RPMI+10% FBS (Fetal Bovine serum)+5.5×10^−5M 2-mercaptoethanol)+10 mM HEPES (N-2-hydroxyethylpiperazine-N′-2-ethane-sulfonic acid)+2.5 mM probenecid+fluo-3 (1:250)). The cells were incubated for 1 hour at 37° C. and then washed in FLIPR wash buffer (100 mL 10× HBSS (Hanks Buffered Saline Solution) (w/Ca++/Mg++)+20 mL 1M HEPES+1 g BSA+10 mL 250 mM probenecid+water (to make 1 L)) and plated at 50,000 cells/well in black/clear 384 well plates. The plates were transferred to FLIPR where the ability of different concentrations of compounds to inhibit RANTES induced calcium flux was assessed. Inhibition of the CCR1 response was reflected by a decrease of the fluorescence signal relative to the positive controls (RANTES alone).
THP-1 Whole Cell Radioligand Binding Assay
The cells were washed with PBS (phosphate buffered saline) and resuspended in binding buffer (10 mM HEPES pH 7.2, 1× HBSS (w/Ca^2+, Mg^2+) 0.5% BSA, 0.02% Na-azide) at 4×10^6 cells/ml (for 200, 000 cells/well). Cells were incubated with 0.1 to 0.2 nM [^125I]-labeled MIP-1α with or without unlabeled competitor (MIP-1α) or various concentrations of compounds for 60 minutes at room temperature. The assay was terminated by vacuum filtration through glass fiber filters (GF/B, Packard) which were presoaked in 0.3% polyethyleneimine. The filters were washed with wash buffer (10 mM HEPES, pH 7.2, 1 mM CaCl2, 5 mM MgCl2 0.5M NaCl), dried and the amount of bound radioactivity was determined by scintillation counting.

Structure (SMILES)	IC50
O=C(c1ccc(Cl)cc1)N1CCN([C@@H]2CN(c3nc(C(F)(F)F)nc4cnccc34)C[C@H]2O)CC1 (racemic) [Example 137, 4-[4-(4-chlorobenzoyl)piperazin-1-yl]-1-[2-(trifluoromethyl)pyrido[3,4-d]pyrimidin-4-yl]pyrrolidin-3-ol]	< 100 nM
O=C(c1ccc(Cl)cc1)N1CCN([C@@H]2CN(c3ncnc4cc(Cl)cnc34)C[C@H]2O)CC1 (racemic) [Example 162, 4-[4-(4-chlorobenzoyl)piperazin-1-yl]-1-(7-chloropyrido[3,2-d]pyrimidin-4-yl)pyrrolidin-3-ol]	< 100 nM
O=C(c1ccc(Cl)cc1)N1CCN([C@H]2CN(c3ncnc4cnccc34)C[C@@H]2O)CC1 (racemic) [Example 182, 4-[4-(4-chlorobenzoyl)piperazin-1-yl]-1-pyrido[3,4-d]pyrimidin-4-ylpyrrolidin-3-ol]	< 100 nM
COc1cc2c(N3C[C@H](O)[C@@H](N4CCN(C(=O)c5ccc(Cl)cc5)CC4)C3)nc(C(F)(F)F)nc2cn1 (racemic) [Example 183, 4-[4-(4-chlorobenzoyl)piperazin-1-yl]-1-[6-methoxy-2-(trifluoromethyl)pyrido[3,4-d]pyrimidin-4-yl]pyrrolidin-3-ol]	< 100 nM
COc1ccc2nc(C(F)(F)F)nc(N3C[C@@H](O)[C@H](N4CCN(C(=O)c5ccc(Cl)cc5)CC4)C3)c2n1 (racemic) [Example 200, 4-[4-(4-chlorobenzoyl)piperazin-1-yl]-1-[6-methoxy-2-(trifluoromethyl)pyrido[3,2-d]pyrimidin-4-yl]pyrrolidin-3-ol]	< 100 nM
O=C(c1ccc(Cl)cc1)N1CCN([C@@H]2CN(c3ccnc4cc(Cl)ccc34)C[C@H]2O)CC1 (stereo in doubt) [Example 1, 4-[4-(4-chlorobenzoyl)piperazin-1-yl]-1-(7-chloroquinolin-4-yl)pyrrolidin-3-ol]	< 100 nM
O=C(c1ccc(Cl)cc1)N1CCN([C@@H]2CN(c3nccc(C(F)(F)F)n3)C[C@H]2O)CC1 (stereo in doubt) [Example 3, 4-[4-(4-chlorobenzoyl)piperazin-1-yl]-1-[4-(trifluoromethyl)pyrimidin-2-yl]pyrrolidin-3-ol]	< 100 nM
O=C(c1ccc(Cl)cc1)N1CCN([C@@H]2CN(c3ncnc4cc(Cl)ccc34)C[C@H]2O)CC1 (stereo in doubt) [Example 23, 4-[4-(4-chlorobenzoyl)piperazin-1-yl]-1-(7-chloroquinazolin-4-yl)pyrrolidin-3-ol]	< 100 nM
O=C(c1ccc(Cl)cc1)N1CCN([C@H]2CN(c3cc(C(F)(F)F)nc4c(C(F)(F)F)cccc34)C[C@@H]2O)CC1 (stereo in doubt) [Example 26, 1-[2,8-bis(trifluoromethyl)quinolin-4-yl]-4-[4-(4-chlorobenzoyl)piperazin-1-yl]pyrrolidin-3-ol]	< 100 nM
O[C@H]1CN(c2ncnc3cc(Cl)ccc23)C[C@@H]1N1CCC(Oc2ccc(Cl)cc2)CC1 (stereo in doubt) [Example 80, 4-[4-(4-chlorophenoxy)piperidin-1-yl]-1-(7-chloroquinazolin-4-yl)pyrrolidin-3-ol]	< 100 nM
O=C(c1ccc(Cl)cc1)N1CCN([C@@H]2CN(c3ncnc4ccc(Cl)cc34)C[C@H]2O)CC1 (stereo in doubt) [Example 81, 4-[4-(4-chlorobenzoyl)piperazin-1-yl]-1-(6-chloroquinazolin-4-yl)pyrrolidin-3-ol]	< 100 nM
O=C(c1ccc(Cl)cc1)N1CCN([C@H]2CN(c3ccc4cccc(Cl)c4n3)C[C@@H]2O)CC1 (stereo in doubt) [Example 85, 4-[4-(4-chlorobenzoyl)piperazin-1-yl]-1-(8-chloroquinolin-2-yl)pyrrolidin-3-ol]	< 100 nM
O=C(c1ccc(Cl)cc1)N1CCN([C@@H]2CN(c3ncnc4cc(F)ccc34)C[C@H]2O)CC1 (stereo in doubt) [Example 86, 4-[4-(4-chlorobenzoyl)piperazin-1-yl]-1-(7-fluoroquinazolin-4-yl)pyrrolidin-3-ol]	< 100 nM
O[C@H]1CN(c2ncnc3cc(Cl)ccc23)C[C@@H]1N1CCN(Cc2ccc(Cl)cc2)CC1 (stereo in doubt) [Example 87, 4-[4-(4-chlorobenzyl)piperazin-1-yl]-1-(7-chloroquinazolin-4-yl)pyrrolidin-3-ol]	< 100 nM
O=C(c1ccc(Cl)cc1)N1CCN([C@@H]2CN(c3ncnc4cc(C(F)(F)F)ccc34)C[C@H]2O)CC1 (stereo in doubt) [Example 93, 4-[4-(4-chlorobenzoyl)piperazin-1-yl]-1-[7-(trifluoromethyl)quinazolin-4-yl]pyrrolidin-3-ol]	< 100 nM
O=C(c1ccc(Cl)cc1)N1CCN([C@@H]2CN(c3nc(C(F)(F)F)nc4ccccc34)C[C@H]2O)CC1 (stereo in doubt) [Example 94, 4-[4-(4-chlorobenzoyl)piperazin-1-yl]-1-[2-(trifluoromethyl)quinazolin-4-yl]pyrrolidin-3-ol]	< 100 nM
O[C@H]1CN(c2nc(C(F)(F)F)nc3ccccc23)C[C@@H]1N1CCN(Cc2ccc(Cl)cc2)CC1 (stereo in doubt) [Example 95, 4-[4-(4-chlorobenzyl)piperazin-1-yl]-1-[2-(trifluoromethyl)quinazolin-4-yl]pyrrolidin-3-ol]	< 100 nM
O[C@H]1CN(c2ncnc3cc(C(F)(F)F)ccc23)C[C@@H]1N1CCN(Cc2ccc(Cl)cc2)CC1 (stereo in doubt) [Example 97, 4-[4-(4-chlorobenzyl)piperazin-1-yl]-1-[7-(trifluoromethyl)quinazolin-4-yl]pyrrolidin-3-ol]	< 100 nM
O=C(c1ccc(Cl)cc1)N1CCN([C@@H]2CN(c3ncnc4cc(F)c(F)cc34)C[C@H]2O)CC1 (stereo in doubt) [Example 102, 4-[4-(4-chlorobenzoyl)piperazin-1-yl]-1-(6,7-difluoroquinazolin-4-yl)pyrrolidin-3-ol]	< 100 nM
O=C(c1ccc(Cl)cc1)N1CCN([C@@H]2CN(c3nc(Nc4ccc(Cl)cc4)cc(C(F)(F)F)n3)C[C@H]2O)CC1 (stereo in doubt) [Example 106, 4-[4-(4-chlorobenzoyl)piperazin-1-yl]-1-[4-[(4-chlorophenyl)amino]-6-(trifluoromethyl)pyrimidin-2-yl]pyrrolidin-3-ol]	< 100 nM
Cc1cc(C(F)(F)F)nc(N2C[C@@H](O)[C@H](N3CCN(C(=O)c4ccc(Cl)cc4)CC3)C2)n1 (stereo in doubt) [Example 107, 4-[4-(4-chlorobenzoyl)piperazin-1-yl]-1-[4-methyl-6-(trifluoromethyl)pyrimidin-2-yl]pyrrolidin-3-ol]	< 100 nM
Cc1cc(C(F)(F)F)nc(N2C[C@@H](O)[C@H](N3CCN(Cc4ccc(Cl)cc4)CC3)C2)n1 (stereo in doubt) [Example 108, 4-[4-(4-chlorobenzyl)piperazin-1-yl]-1-[4-methyl-6-(trifluoromethyl)pyrimidin-2-yl]pyrrolidin-3-ol]	< 100 nM
O=C(c1ccc(Cl)cc1)N1CCN([C@@H]2CN(c3nc(C(F)(F)F)cc(C(F)(F)F)n3)C[C@H]2O)CC1 (stereo in doubt) [Example 109, 1-[4,6-bis(trifluoromethyl)pyrimidin-2-yl]-4-[4-(4-chlorobenzoyl)piperazin-1-yl]pyrrolidin-3-ol]	< 100 nM
O=C(c1ccc(Cl)cc1)N1CCN([C@@H]2CN(c3nc(C(F)(F)F)nc4cc(C(F)(F)F)ccc34)C[C@H]2O)CC1 (stereo in doubt) [Example 111, 1-[2,7-bis(trifluoromethyl)quinazolin-4-yl]-4-[4-(4-chlorobenzoyl)piperazin-1-yl]pyrrolidin-3-ol]	< 100 nM
O=C(c1ccc(Cl)cc1)N1CCN([C@@H]2CN(c3cc(C(F)(F)F)cc(C(F)(F)F)c3)C[C@H]2O)CC1 (stereo in doubt) [Example 113, 1-[3,5-bis(trifluoromethyl)phenyl]-4-[4-(4-chlorobenzoyl)piperazin-1-yl]pyrrolidin-3-ol]	< 100 nM
O[C@@H]1CN(c2ncnc3cc(Cl)ccc23)C[C@H]1N1CCN(Cc2ccc(F)cc2)CC1 (stereo in doubt) [Example 115, 1-(7-chloroquinazolin-4-yl)-4-[4-(4-fluorobenzyl)piperazin-1-yl]pyrrolidin-3-ol]	< 100 nM
